Marks after values point to notes of the source that are not given here.
Key:
Assay type in all cases: in vivo, rat
[1] = Weekly body weight of SHR rats; conditions: captopril 27 mg/kg intragastric
Protocol: (§1) 2.1 Grouping and administration of animals: 112 SHR rats (the female and male SHR rats are half and half, and the female rats are not pregnant) with the body weight of 200-250 g are taken, the rats are enabled to adapt to a laboratory for a period of 5 d, blood pressure is measured once at a day to enable the rats to adapt to the environment and detect stimulation. Then, weighing and numbering are carried out, and the SHR rats are equally divided into 14 groups randomly (each group comprises 8 rats), i.e., an SHR rat model control group, a positive control group (captopril, 27 mg/kg), a BZ large-dose group (120 mg/kg/d), a BZ small-dose group (60 mg/kg/d), a BA large-dose group (120 mg/kg/d), a BA small-dose group (60 mg/kg/d), a BL large-dose group (120 mg/kg/d), a BL small-dose group (60 mg/kg/d), a BM large-dose group (120 mg/kg/d), a BM small-dose group (60 mg/kg/d), a BD large-dose group (120 mg/kg/d), a BD small-dose group (60 mg/kg/d), a GB large-dose group (120 mg/kg/d) and a GB small-dose group (60 mg/kg/d). In addition, 8 healthy Wistar rats are taken as a normal control group. Intragastric administration is performed on the rats of each drug group separately according to the above-mentioned doses by 1 mL/100 g body weight, intragastric administration is performed on the rats of the normal control group and the rats of the SHR rat model control group with an equal volume of distilled water, and administration is performed continuously for 8 weeks.
(§2) 2.2 General state: during observation, conditions such as mind, water drinking, food intake, bowel movement, hair color, body weight and range of motion of rats are observed. Irritable degrees of the rats are divided into III levels: a level I means that the rats are free of obvious response when necks of the rats are seized; a level II means that the rats scream and startle when the necks of the rats are seized; and a level III means that the rats bite or rats of same cages frequently fight when the necks of the rats are seized.
(§3) 3.1 Influence on general state of spontaneously hypertensive rats: the rats of the normal control group are normal in food intake, drinking and motion conditions, sensitive in response, healthy and glossy in hair color, good in mental state and free of any unusual response; the rats of the SHR model group gradually present that back hair is fluffy, clustered and dim, the appetite is reduced, the body weight is reduced, the mind is dispirited and irritable, and the rats are prone to the behaviors of intense resisting, attacking and so on during administration and blood pressure detection, and irritable degrees are mostly changed to a level II and a level III from a level I; and after single administration of ginkgolide B and derivatives thereof, behavioral general state observations of rats of each group are free of obvious difference from those of the model control group.

[2] = test system: spontaneously hypertensive rats (SHR); assay: Caudal artery systolic pressure of spontaneously hypertensive rats, single administration; conditions: captopril 27 mg/kg intragastric single administration, x ± s, n = 8
Protocol: as §1
(§4) 2.3 Blood pressure measuring: caudal artery systolic pressure of rats is measured with a Bp-6 noninvasive blood pressure measuring system. Under the condition that the rats are calm, the systolic pressure is continuously measured for 3 times, and the average value of the measured systolic pressure is taken as a pressure measuring result. Observation indexes: (1) single-administration pressure lowering effect: blood pressure of the rats is measured before administration and blood pressure conditions are measured 30 min, 60 min, 90 min and 120 min after first administration; and (2) continuous-administration pressure lowering condition: blood pressure is separately measured 30 min after administration at 1 d, 7 d, 13 d, 19 d, 25 d, 35 d, 49 d and 56 d, the blood pressure is repeatedly measured for 3 times at a day, and the average value of obtained values is taken as a final blood pressure value.

[3] = test system: spontaneously hypertensive rats (SHR); assay: Caudal artery systolic pressure of spontaneously hypertensive rats, 8 weeks of continuous medication; conditions: captopril 27 mg/kg intragastric continuous, x ± s, n = 8
Protocol: as §1, §4

[4] = Weekly food intake of SHR rats; conditions: captopril 27 mg/kg intragastric
Protocol: as §1, §2, §3

C[C@H](CS)C(=O)N1CCC[C@H]1C(=O)O [Positive control, captopril, reference compound]
Body weight ([1]; week 0): 230.5 g | Body weight ([1]; week 1): 235.1 g | Body weight ([1]; week 2): 245.4^▴ g | Body weight ([1]; week 3): 255.9^▴▴ g | Body weight ([1]; week 4): 260.5^▴▴ g | Body weight ([1]; week 5): 266.3^▴▴ g | Body weight ([1]; week 6): 271.0^▴▴ g | Body weight ([1]; week 7): 280.6^▴▴ g | Body weight ([1]; week 8): 290.7^▴▴ g | Systolic pressure ([2]; 30 min): 149.75 ± 8.09 mmHg | Systolic pressure ([2]; 60 min): 140.95 ± 9.50 mmHg | Systolic pressure ([2]; 90 min): 139.23 ± 6.04 mmHg | Systolic pressure ([2]; 120 min): 134.41 ± 8.31 mmHg | Systolic pressure ([2]; before administration): 161.24 ± 11.03 mmHg | Systolic pressure ([3]; 1 d, 30 min after administration): 145.17 ± 6.42 mmHg | Systolic pressure ([3]; 7 d, 30 min after administration): 142.05 ± 7.24 mmHg | Systolic pressure ([3]; 13 d, 30 min after administration): 140.36 ± 9.20 mmHg | Systolic pressure ([3]; 19 d, 30 min after administration): 138.39 ± 7.26 mmHg | Systolic pressure ([3]; 25 d, 30 min after administration): 145.02 ± 7.30 mmHg | Systolic pressure ([3]; 35 d, 30 min after administration): 139.08 ± 6.72 mmHg | Systolic pressure ([3]; 49 d, 30 min after administration): 135.47 ± 8.47 mmHg | Systolic pressure ([3]; 56 d, 30 min after administration): 130.39 ± 4.65 mmHg | Systolic pressure ([3]; before administration): 161.24 ± 11.03 mmHg | Average dairy food intake ([4]; week 0): 18.4 g/day | Average dairy food intake ([4]; week 1): 20.0^▴ g/d | Average dairy food intake ([4]; week 2): 19.1^▴ g/d | Average dairy food intake ([4]; week 3): 19.5^▴ g/d | Average dairy food intake ([4]; week 4): 19.9^▴ g/d | Average dairy food intake ([4]; week 5): 21.4^▴▴ g/d | Average dairy food intake ([4]; week 6): 23.8^▴▴ g/d | Average dairy food intake ([4]; week 7): 24.6^▴▴ g/d | Average dairy food intake ([4]; week 8): 26.3^▴▴ g/d

Source: patent publication US10875874B2, “Ginkgolide B derivative and preparation method and use thereof” (Chengdu Baiyu Ginkgolide Pharmaceuticals Co., Ltd., priority 2015, dated 2020)
